Patent US9144570B2, “Method to enhance delivery of glutathione and ATP levels in cells” (Max International LLC, priority 2004, dated 2015)
“Also recorded” adds a separate entry of the source.

Key:
mice [1] = settings: cited from earlier work
Rat hepatocytes [2] = test: Inhibitory effect of BSO on GSH elevation elicited by L-cysteine prodrugs in rat hepatocytes; type: cell-based
Description: (§1) Rat hepatocytes were isolated following the methods of P. O. Seglen, Exper. Cell Res., 74, 450 (1972). After final plating, the hepatocytes were maintained in culture for 24 hr prior to use. Only primary cultures were used throughout the studies. […] Total GSH content (GSH+GSSG) was determined by a modification of the DTNB [5,5′-dithiobis(2-nitrobenzoic acid)] glutathione reductase recycling method of F. Tietze, Anal. Biochem., 27, 502 (1969). The GSH concentration in the sample was quantified by determining the cycling rate (ΔOD at 412 nm/min) of the sample.

Rat hepatocytes [3] = test: Glutathione content of isolated rat hepatocytes after incubation with L-cysteine prodrugs; type: cell-based; settings: for [GSH] Rel. to Controls. / [GSH] ± SE: 4-hr incubation, RibCys 1.0 mM, NAC 2.5 mM; for [GSH] ± SE: total GSH (GSH+GSSG)
Description: as §1

mice [4] = settings: RibCys 8 mmol/kg; cited from earlier work
mice [5] = settings: RibCys; 1 g/kg in mice; cited from earlier work
tumor-bearing CDF1 mice = settings: 8 mmol/kg i.p., cited from earlier work
canine heart = settings: cited from earlier work
healthy human subjects = settings: oral, 8-10 g per day, adult; cited from earlier work
human subjects = settings: administered directly to human subjects, wide dosage ranges; cited from earlier work
[6] = prodrug 1.0 mM, cells pre-exposed to BSO 0.2 mM

CC1N[C@H](C(=O)O)CS1 (stereo partly drawn) [2(R,S)-methyl-thiazolidine-4R-carboxylate]
protection of mice from hepatotoxic dosages of acetaminophen (mice [1]): protect mice from heptatotoxic dosages of acetaminophen

CCCCCC1N[C@H](C(=O)O)CS1 (stereo partly drawn) [2(R,S)-n-pentyl-thiazolidine-4R-carboxylate]
protection of mice from hepatotoxic dosages of acetaminophen (mice [1]): protect mice from heptatotoxic dosages of acetaminophen

CCCC1N[C@H](C(=O)O)CS1 (stereo partly drawn) [2(R,S)-n-propyl-thiazolidine-4R-carboxylate]
protection of mice from hepatotoxic dosages of acetaminophen (mice [1]): protect mice from heptatotoxic dosages of acetaminophen

CCCCS(=N)(=O)CCC(N)C(=O)O (stereo not drawn) [BSO, Buthionine Sulfoximine]
[GSH] Rel. to Controls. (Rat hepatocytes [2]; BSO 0.2 mM alone, no prodrug): 0.5 | [GSH] ± SE (Rat hepatocytes [2]; BSO 0.2 mM alone, no prodrug): 18.4 ± 2.08 nmol/10^6 cells

O=C1N[C@H](C(=O)O)CS1 [L-2-oxothiazolidine-4-carboxylate]
protection of mice from hepatotoxic dosages of acetaminophen (mice [1]): protect mice from heptatotoxic dosages of acetaminophen

CC(=O)N[C@@H](CS)C(=O)O [N-Acetyl-L-cysteine (NAC), N-Acetyl-L-cysteine]
[GSH] Rel. to Controls. (Rat hepatocytes [3]): 1.3 | GSH levels raised by (Rat hepatocytes [3]; NAC, 2.5 times the concentration of the thiazolidine prodrugs): 30% | [GSH] ± SE (Rat hepatocytes [3]): 45.8 ± 1.27 nmol/10^6 cells | [GSH] Rel. to Controls. (Rat hepatocytes [2]; [6]): 0.7 | [GSH] ± SE (Rat hepatocytes [2]; [6]): 25.5 ± 1.59 nmol/10^6 cells | protection of mice from hepatotoxic dosages of acetaminophen (mice [1]): protect mice from heptatotoxic dosages of acetaminophen

O=C(O)[C@@H]1CSC(C(O)C(O)C(O)CO)N1 (stereo partly drawn) [RibCys, 2(R,S)-D-ribo-1′,2′,3′,4′-Tetrahydroxybutylthiazolidine-4(R)-carboxylic Acid]
protection of mice exposed to cyclophosphamide (mice [4]): deliver effective protective amounts of cysteine to mice exposed to cyclophosphamide | protection against radiation-induced bowel injury (mice [5]): protect the large and small bowel against radiation injury; also recorded: protect mice against irradiation-induced bowel injury | [GSH] Rel. to Controls. (Rat hepatocytes [3]): about 1.7 | [GSH] Rel. to Controls. (Rat hepatocytes [3]; listed as RibCys (Ia)): 1.7 | [GSH] ± SE (Rat hepatocytes [3]): 61.2 ± 1.52 nmol/10^6 cells | [GSH] Rel. to Controls. (Rat hepatocytes [2]; [6]): 0.5 | [GSH] ± SE (Rat hepatocytes [2]; [6]): 16.2 ± 3.60 nmol/10^6 cells | protection against acetaminophen hepatic and renal toxicity (mice [1]; RibCys, 2 g/kg in mice): effective to protect against acetaminophen-induced hepatic and renal toxicity; also recorded: protect mice against acetaminophen hepatic and renal toxicity | GSH in the liver compared to untreated controls (tumor-bearing CDF1 mice; 16-h time point): 1.5 fold | GSH in bladder relative to controls (tumor-bearing CDF1 mice; maximal GSH content): 2.1 fold | GSH in muscle relative to control animals (tumor-bearing CDF1 mice; maximal GSH content): 2.5 times | Kidney GSH relative to control values (tumor-bearing CDF1 mice; maximal at 16 h): 1.6 times control values | GSH in implanted L1210 tumors relative to controls (tumor-bearing CDF1 mice): 1.2 fold

O=C[C@H](O)[C@H](O)[C@H](O)CO [ribose]
decrease in the ATP recovery time (canine heart; 80 mM ribose in normal saline, about 1 ml/min for about 24.0 hours, about 550-700 mg/kg): eight-fold decrease | recovery of ATP levels in heart recovering from ischemia (canine heart; intravenous perfusion): recovery of ATP levels is enhanced | ATP levels in dogs subjected to ischemia (heart attack model) (canine heart; ribose about 3 g/day for at least 5 days): effectively restored and maintained ATP levels | exercise capacity (healthy human subjects): increase exercise capacity | toxicity (human subjects): essentially non-toxic
